Where a name gives a salt, the structure may show the parent alone.
How the values were obtained:
[1] = tested on: male diet-induced obese F344/Jcl rats; assay: Anorectic effect in male diet-induced obese F344/Jcl rats; type: in vivo, rat; settings: 5 mg/mL suspension at 2 mL/kg, two administrations, food intake for 2 days vs control group; for inhibition in vivo at 5000 µg/mL, 10 mg/kg: Rattus norvegicus, po, 48 h, read-out: Food intake suppression rate (%)
Experimental: Evaluation of Anorectic Effect Using Male Diet-Induced Obese F344/Jcl Rats
Male diet-induced obese F344/Jcl rats (44-50 weeks old) fed with a high-fat diet (D12451: Research Diets) from 5 weeks old were used. From before the start of experiment, the rats were singly housed, given a powder high-fat diet (D12451M: Research Diets), and habituated to oral administration with tap water. The food intake from the evening of the day before the start of experiment to the next morning was measured, and the rats were grouped based on both the food intake and the body weight of the previous day. In the evening of the day of the start of experiment and the next day, 0.5% methylcellulose solution was orally administered to the control group, and 0.5% methylcellulose suspension (5 mg/mL) of the test compound was orally administered to the compound administration group at 2 mL/kg (6 per group for both control group and compound administration group). The food intake for 2 days from the initial administration was measured. The food intake inhibition rate of each compound administration group to the control group was calculated.

[2] = molecular target: T1, human MCH receptor 1 (MCHR1) (Homo sapiens, UniProt Q99705); assay: human MCH receptor 1 (MCHR1) competitive binding assay with [125I]-MCH(4-19); settings: test compound 0.1 μM, human MCHR1-expressing CHO cell membrane fraction, read-out: Binding inhibition rate % (0.1 μM)
T1 construct: expressed in transfected cells; host or cells: CHO cell clone 57 (membrane fraction)
In short: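 Percent binding inhibition by 0.1 μM test compound, corrected for nonspecific binding defined with unlabeled MCH(1-19), is read by scintillation after filtration onto PEI-treated GF/C filters. The reaction runs 1 hr at room temperature with [125I]-MCH(4-19) and human MCHR1-CHO cell membranes in Tris-HCl pH 7.5 buffer containing EDTA and protease inhibitors.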

human MCHR1 = molecular target: T2, human MCHR1 (Homo sapiens, UniProt Q99705); assay: MCH receptor 1 antagonistic activity, Ca2+ mobilization assay; type: cell-based; settings: CHO, test compound 0.1 μM; human MCHR1-expressing CHO cells (clone #4); ligand MCH(4-19) 2 nM; read-out: Inhibitory rate % (0.1 μM)
T2 construct: expressed in transfected cells; host or cells: CHO dhfr- cells, clone #4
In short: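 CHO dhfr− cells stably expressing human MCHR1 (clone #4) were used in a fluorometric Ca2+ mobilization assay. Test compounds were run at 0.1 μM, with antagonism expressed as percent inhibition.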

HepG2 cells = assay: PLsis (phospholipidosis) inducing potential, NBD-PE uptake; type: cell-based; settings: 24 hr exposure, relative value to 10 μM Amiodarone, maximum value per unit concentration
Experimental: Evaluation of PLsis Inducing Potential
DMEM medium, L-glutamine, penicillin-streptomycin, pyruvic acid, and N-(7-nitrobenz-2-oxa-1,3-diazol-4-yl)-1,2-hexadecanoyl-sn-glycero-3-phosphoethanolamine triethylammonium salt (NBD-PE) were purchased from Invitrogen Corporation. As bovine serum albumin (BSA), a product of Thermo Trace Ltd. (Melbourne, Australia) was used, and as Amiodarone, a product of ICN (Costa Mesa, Calif.) was used. A test compound was used in the form of a 10 mM DMSO solution.
FBS was added at a final concentration of 5 vol % to DMEM medium supplemented with L-glutamine, pyruvic acid and penicillin-streptomycin and subjected to the experiment. Culture was performed using 5% carbon dioxide gas-95% air as a gas phase in a CO2 incubator at 37° C. HepG2 cells were suspended in a culture medium at 50×10^4 cells/mL, plated in a 96 well plate at 50 μL/well and precultured for 24 hr. After preculture, the culture medium was removed, a culture medium containing 60 μM NBD-PE was added at 50 μL/well, and a culture medium containing 0.6 μM or 20 μM test compounds were each added at 50 μL/well to HepG2 cells, and the cells were cultured for 24 hr. As a positive control, Amiodarone was used at a final concentration of 10 μM.
After exposure to the test compound for 24 hr, the fluorescence intensity (Ex. 485 nm, Em. 538 nm) of NBD-PE uptaken by the cells was measured by a fluorometer. The measurement value with addition of 0 μM test compound solution was subtracted as a blank, a relative value to the measurement 5 value with addition of 10 μM Amiodarone was calculated, and the maximum value per unit concentration of the test compound was obtained as a phospholipidosis (PLsis) inducing potential.

T2 sequence (Q99705 whole entry): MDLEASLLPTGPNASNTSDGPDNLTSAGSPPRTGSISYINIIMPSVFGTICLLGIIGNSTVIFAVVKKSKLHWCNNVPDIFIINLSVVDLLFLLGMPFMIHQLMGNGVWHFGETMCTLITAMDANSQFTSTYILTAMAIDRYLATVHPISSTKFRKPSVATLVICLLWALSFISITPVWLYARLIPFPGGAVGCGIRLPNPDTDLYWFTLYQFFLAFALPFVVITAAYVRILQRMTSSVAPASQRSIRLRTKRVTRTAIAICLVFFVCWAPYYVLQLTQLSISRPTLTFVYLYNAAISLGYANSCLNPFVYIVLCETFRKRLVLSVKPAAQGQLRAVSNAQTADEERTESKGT
T1 sequence (Q99705 whole entry): as above

| Structure (SMILES) | inhibition at 0.1 µM [2] [%] | inhibition at 0.1 µM (human MCHR1) [%] | inhibition in vivo at 5000 µg/mL, 10 mg/kg [1] [%] | PLsis inducing potential (HepG2 cells) | Food intake suppression rate (%) ([1]; oral, hydrochloride) |
| --- | --- | --- | --- | --- | --- |
| Cn1c(C2CC2)nc2ccc(-n3ccc(OCc4ccccc4)cc3=O)cc21 [Example 9, 4-(Benzyloxy)-1-(2-cyclopropyl-1-methyl-1H-benzimidazol-6-yl)pyridin-2(1H)-one] | 72 | 100 | 14.8 |  |  |
| CCc1nc2ccc(-n3ccc(OCc4ccc(Cl)s4)cc3=O)cc2n1C [Example 49, 4-[(5-Chlorothiophen-2-yl)methoxy]-1-(2-ethyl-1-methyl-1H-benzimidazol-6-yl)pyridin-2(1H)-one] |  |  | 29.3 |  |  |
| CCc1nc2ccc(-n3ccc(OCc4csc(Cl)c4)cc3=O)cc2n1C [Example 51, 4-[(5-Chlorothiophen-3-yl)methoxy]-1-(2-ethyl-1-methyl-1H-benzimidazol-6-yl)pyridin-2(1H)-one] |  |  | 50 |  |  |
| Cn1c(C2CC2)nc2ccc(-n3ccc(OCc4ccc(F)c(F)c4)cc3=O)cc21 [Example 115, 1-(2-Cyclopropyl-1-methyl-1H-benzimidazol-6-yl)-4-((3,4-difluorobenzyl)oxy)pyridin-2(1H)-one] | 82 |  | 32 | 1.8 |  |
| Cn1c(C2CC2)nc2ccc(-n3ccc(OCc4ccc(Cl)c(F)c4)cc3=O)cc21 [Example 131, 4-((4-Chloro-3-fluorobenzyl)oxy)-1-(2-cyclopropyl-1-methyl-1H-benzimidazol-6-yl)pyridin-2(1H)-one] | 78 |  | 44.3 |  |  |
| Cn1c(C2CC2)nc2ccc(-n3ccc(OCc4csc(Cl)c4)cc3=O)cc21 [Example 143, 4-((5-Chloro-3-thienyl)methoxy)-1-(2-cyclopropyl-1-methyl-1H-benzimidazol-6-yl)pyridin-2(1H)-one] | 91 |  | 39.4 | 1.6 |  |
| Cc1c(C2CC2)nc2ccc(-n3ccc(OCc4ccc(F)s4)cc3=O)cn12 [Example 156, 1-(2-Cyclopropyl-3-methylimidazo[1,2-a]pyridin-6-yl)-4-((5-fluorothiophen-2-yl)methoxy)pyridin-2(1H)-one] | 48 | 90 |  | 2.0 |  |
| Cc1c(C2CC2)nc2ccc(-n3ccc(OCc4ccc(C(F)(F)F)s4)cc3=O)cn12 [Example 160, 1-(2-Cyclopropyl-3-methylimidazo[1,2-a]pyridin-6-yl)-4-((5-(trifluoromethyl)thiophen-2-yl)methoxy)pyridin-2(1H)-one hydrochloride] |  |  |  |  | 22.7 |
| CCc1nc2ccc(-n3ccc(OCc4csc(Cl)c4)cc3=O)cc2n1C [Example 226, 4-((5-Chloro-3-thienyl)methoxy)-1-(2-ethyl-1-methyl-1H-benzimidazol-6-yl)pyridin-2(1H)-one] | 89 | 106 |  | 2.1 |  |
| Cn1c(C2CC2)nc2ccc(-n3ccc(OCc4ccc(C(F)(F)F)s4)cc3=O)cc21 [Example 242, 1-(2-Cyclopropyl-1-methyl-1H-benzimidazol-6-yl)-4-((5-(trifluoromethyl)-2-thienyl)methoxy)pyridin-2(1H)-one hydrochloride] |  |  | 17.4 |  |  |
| Cn1c(C2CC2)nc2ccc(-n3ccc(OCc4csc(C(F)F)n4)cc3=O)cc21 [Example 287, 1-(2-Cyclopropyl-1-methyl-1H-benzimidazol-6-yl)-4-((2-(difluoromethyl)-1,3-thiazol-4-yl)methoxy)pyridin-2(^1H)-one] | 47 | 95 |  |  |  |
| CCc1nc2ccc(-n3ccc(OCc4csc(C(F)F)n4)cc3=O)cc2n1C [Example 288, 4-((2-(Difluoromethyl)-1,3-thiazol-4-yl)methoxy)-1-(2-ethyl-1-methyl-1H-benzimidazol-6-yl)pyridin-2(1H)-one] | 40 | 87 |  |  |  |
| Cc1nc2ccc(-n3ccc(OCc4ccccc4)cc3=O)cc2n1C [Example 289, 4-(Benzyloxy)-1-(1,2-dimethyl-1H-benzimidazol-6-yl)pyridin-2(1H)-one] | 48 | 100 |  |  |  |
| Cc1nc2ccc(-n3ccc(OCc4csc(C(F)(F)F)c4)cc3=O)cc2n1C [Example 290, 1-(1,2-Dimethyl-1H-benzimidazol-6-yl)-4-((5-(trifluoromethyl)thiophen-3-yl)methoxy)pyridin-2(1H)-one] | 77 | 90 | 43.5 |  |  |
| Cc1c(C2CC2)nc2ccc(-n3ccc(OCc4ccc(F)cn4)cc3=O)cn12 [Example 291, 1-(2-Cyclopropyl-3-methylimidazo[1,2-a]pyridin-6-yl)-4-((5-fluoropyridin-2-yl)methoxy)pyridin-2(1H)-one hydrochloride] | 47 | 98 |  |  |  |

Further lines, with some results ahead:

| inhibition at 0.1 µM [2] [%] | inhibition at 0.1 µM (human MCHR1) [%] | Structure (SMILES) | inhibition in vivo at 5000 µg/mL, 10 mg/kg [1] [%] | PLsis inducing potential (HepG2 cells) | Food intake suppression rate (%) ([1]; oral, hydrochloride) |
| --- | --- | --- | --- | --- | --- |
| 89 | 99 | Cn1c(C2CC2)nc2ccc(-n3ccc(OCc4ccc(Cl)cc4)cc3=O)cc21 [Example 10, 4-((4-Chlorobenzyl)oxy)-1-(2-cyclopropyl-1-methyl-1H-benzimidazol-6-yl)pyridin-2(1H)-one] | 58.1 |  |  |
| 53 | 90 | Cn1c(CC2CC2)nc2ccc(-n3ccc(OCc4ccc(F)cc4)cc3=O)cc21 [Example 15, 1-(2-(Cyclopropylmethyl)-1-methyl-1H-benzimidazol-6-yl)-4-((4-fluorobenzyl)oxy)pyridin-2(1H)-one] | 45.4 |  |  |
| 83 | 105 | Cc1c(C2CC2)nc2ccc(-n3ccc(OCc4ccc(C(F)(F)F)s4)cc3=O)cn12 [Example 158, 1-(2-Cyclopropyl-3-methylimidazo[1,2-a]pyridin-6-yl)-4-((5-(trifluoromethyl)thiophen-2-yl)methoxy)pyridin-2(1H)-one] | 20.3 |  |  |
| 66 | 85 | Cn1c(C2CC2)nc2ccc(-n3ccc(OCc4csc(C(F)(F)F)c4)cc3=O)cc21 [Example 252, 1-(2-Cyclopropyl-1-methyl-1H-benzimidazol-6-yl)-4-((5-(trifluoromethyl)-3-thienyl)methoxy)pyridin-2(1H)-one] | 30.8 |  |  |
| 50 | 73 | Cn1c(C2CC2)nc2ccc(-n3ccc(OCc4csc(C(F)(F)F)n4)cc3=O)cc21 [Example 266, 1-(2-Cyclopropyl-1-methyl-1H-benzimidazol-6-yl)-4-((2-(trifluoromethyl)-1,3-thiazol-4-yl)methoxy)pyridin-2(1H)-one] | 20 |  |  |
| 75 | 89 | Cn1c(C2CC2)nc2ccc(-n3ccc(OCc4cc(C(F)(F)F)cs4)cc3=O)cc21 [Example 275, 1-(2-Cyclopropyl-1-methyl-1H-benzimidazol-6-yl)-4-((4-(trifluoromethyl)-2-thienyl)methoxy)pyridin-2(1H)-one] | 50.1 |  |  |
| 71 | 97 | CCc1nc2ccc(-n3ccc(OCc4cc(C(F)(F)F)cs4)cc3=O)cc2n1C [Example 276, 1-(2-Ethyl-1-methyl-1H-benzimidazol-6-yl)-4-((4-(trifluoromethyl)-2-thienyl)methoxy)pyridin-2(1H)-one] | 57.9 |  |  |

— US9365540B2, “Benzimidazole derivatives as MCH receptor antagonists” (Takeda Pharmaceutical Company Limited, priority 2012, dated 2016)
